According to the supplement of paper PMC11451515:

Columns and labels:
Settings in all cases: 48 h
SEM cells [1] = experiment: cell viability relative to DMSO control; higher = less cytotoxic
In short: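 NOMO1 or SEM cells were plated at 500 cells/well and P12-Ichikawa cells at 1000 cells/well in 1536-well plates (5 μl), after each leukemia line had been adapted for at least four passages in each medium. Pin dosing delivered library compounds in DMSO at 11 threefold concentrations, 47 μM to 0.79 nM. CellTiter-Glo One luminescence was read after 48 h at 37°C. Viability is reported as a per-plate percentage of DMSO wells, with cell-free wells as background.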

NOMO1 = experiment: AUC of viability dose-response curve (% viability x log10 dose units); higher = less sensitive
In short: (§1)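 Leukemia cells adapted to each medium were seeded at 500 or 1000 cells/well in 1536-well plates and dosed with library compounds in DMSO at 11 threefold doses from 47 μM to 0.79 nM for 48 h at 37°C. CellTiter-Glo One luminescence was normalised per plate to DMSO and cell-free wells, then fitted with a four-parameter log-logistic model over log10 doses. Area under the curve was taken from this fit by the trapezoidal rule, with curves above full viability scaled and curves failing quality control removed.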

P12-Ichikawa = experiment: as above
In short: as §1

SEM cells [2] = experiment: as above
In short: as §1

Clc1ccc2c(N3CCN(CCCN4CCN(c5ccnc6cc(Cl)ccc56)CC4)CC3)ccnc2c1
cell viability [%], SEM cells [1]
Settings	HPLM + 10% dialyzed FBS	RPMI 5 mM glucose + 10% dialyzed FBS
0.000781 µM	96.6	118
0.00234 µM	111	131
0.00702 µM	125	112
0.0211 µM	102	120
0.0632 µM	120	119
0.19 µM	120	128
0.569 µM	135	134
1.71 µM	130	146
5.12 µM	133	130
15.4 µM	102	109
46.1 µM	84.5	69.9

AUC of viability dose-response curve
Settings	NOMO1	P12-Ichikawa	SEM cells [2]
HPLM + 10% dialyzed FBS	469	456	464
RPMI 5 mM glucose + 10% FBS	457	448	459
RPMI 5 mM glucose + 10% dialyzed FBS	465	442	459

CC/C(=C(/CC)c1ccc(O)cc1)c1ccc(O)cc1
AUC of viability dose-response curve
Settings	NOMO1	P12-Ichikawa	SEM cells [2]
HPLM + 10% dialyzed FBS	442	463	473
RPMI 5 mM glucose + 10% FBS	465	457	460
RPMI 5 mM glucose + 10% dialyzed FBS	429	436	421

O=C1CCC(N2C(=O)c3ccccc3C2=O)C(=O)N1 (stereo not drawn)
SEM cells [1], RPMI 5 mM glucose + 10% FBS
Settings	cell viability [%]
0.000781 µM	106
0.00234 µM	114
0.00702 µM	115
0.0211 µM	112
0.0632 µM	102
0.19 µM	94.6
0.569 µM	98.2
1.71 µM	111
5.12 µM	101
15.4 µM	67.3
46.1 µM	98.9

AUC of viability dose-response curve
Settings	NOMO1	P12-Ichikawa	SEM cells [2]
HPLM + 10% dialyzed FBS	436	443	454
RPMI 5 mM glucose + 10% FBS	437	438	437
RPMI 5 mM glucose + 10% dialyzed FBS	461	450	443

CN(C1CCc2c(c3ccccc3n2CC(=O)O)C1)[S+](=O)([O-])c1ccc(F)cc1 (stereo not drawn)
AUC of viability dose-response curve
Settings	NOMO1	P12-Ichikawa	SEM cells [2]
HPLM + 10% dialyzed FBS	383	399	461
RPMI 5 mM glucose + 10% FBS	392	401	425
RPMI 5 mM glucose + 10% dialyzed FBS	392	419	454

COc1cc(Oc2ccnc3cc(OC)c(OC)cc23)ccc1NC(=O)NC(C)c1nccs1 (stereo not drawn)
AUC of viability dose-response curve
Settings	NOMO1	P12-Ichikawa	SEM cells [2]
HPLM + 10% dialyzed FBS	444	449	453
RPMI 5 mM glucose + 10% FBS	463	446	440
RPMI 5 mM glucose + 10% dialyzed FBS	462	450	439

CC(=O)NC(C)c1ccc(Oc2ccc(OC(C)C)cc2)cc1 (stereo not drawn)
AUC of viability dose-response curve
Settings	HPLM + 10% dialyzed FBS	RPMI 5 mM glucose + 10% FBS	RPMI 5 mM glucose + 10% dialyzed FBS
P12-Ichikawa	454	440	450
SEM cells [2]	469	438	449

CC(C)C[C@H](NC(=O)c1cc2ccccc2s1)C(=O)N1CCN(C(=O)[C@H](CO)N[S+](=O)([O-])c2ccc(Cl)cc2Cl)CC1
AUC of viability dose-response curve
Settings	NOMO1	P12-Ichikawa	SEM cells [2]
HPLM + 10% dialyzed FBS	461	462	451
RPMI 5 mM glucose + 10% FBS	468	464	453
RPMI 5 mM glucose + 10% dialyzed FBS	436	462	439

C=CC[N+]1([C@H]2C[C@H]3[C@@H]4CC[C@H]5C[C@H](O)[C@@H](N6CCOCC6)C[C@]5(C)[C@H]4CC[C@]3(C)[C@H]2OC(C)=O)CCCC1
SEM cells [1], HPLM + 10% dialyzed FBS
Settings	cell viability [%]
0.000781 µM	130
0.00234 µM	116
0.00702 µM	119
0.0211 µM	125
0.0632 µM	114
0.19 µM	131
0.569 µM	124
1.71 µM	127
5.12 µM	119
15.4 µM	113
46.1 µM	113

AUC of viability dose-response curve
Settings	NOMO1	P12-Ichikawa	SEM cells [2]
HPLM + 10% dialyzed FBS	442	457	462
RPMI 5 mM glucose + 10% FBS	454	455	464
RPMI 5 mM glucose + 10% dialyzed FBS	455	462	465
